Where “and” joins values, the source holds several entries; their conditions need not be identical. Equal values may be shown once.
These compounds were tested against TNKS1 (Homo sapiens, UniProt O95271) (assay: TNKS1/PARP Biochemical Assay (TNKS1)).

IC50 | SMILES
< 50 nM | Cc1cccc2c(=O)[nH]c(-c3ccc(CN4CCNCC4C)cc3)cc12 (single isomer, unassigned) [IQ-051-2]
< 50 nM | Cc1cccc2c(=O)[nH]c(-c3ccc(C(=O)N(C)C4CCN(C)C4)cc3)cc12 (single isomer, unassigned) [IQ-205-1]
< 20 nM | Cc1cccc2c(=O)[nH]c(-c3ccc(C(=O)N(C)C4CCN(C)C4)cc3)cc12 (single isomer, unassigned) [IQ-205-2]
< 50 nM | Cc1cc(F)cc2c(=O)[nH]c(-c3ccc(C(=O)N(C)C4CCN(C)C4)cc3)cc12 (single isomer, unassigned) [IQ-207-1]
< 50 nM | Cc1cc(F)cc2c(=O)[nH]c(-c3ccc(C(=O)N(C)C4CCN(C)C4)cc3)cc12 (single isomer, unassigned) [IQ-207-2]
< 500 nM | CN1CCN(c2ccc(-c3cc4c(Cl)cccc4c(=O)[nH]3)c[n+]2[O-])CC1 [IQ-002-2, 5-Chloro-3-[6-(4-methyl-piperazin-1-yl)-1-oxy-pyridin-3-yl]-2H-isoquinolin-1-one]
< 20 nM | Cc1cccc2c(=O)[nH]c(-c3ccc(N4CCN(C5CC5)CC4)nc3)cc12 [IQ-004]
< 20 nM | Cc1cccc2c(=O)[nH]c(-c3ccc(N4CCC(N(C)C)CC4)nc3)cc12 [IQ-006]
< 50 nM | CN(C)C1CCN(c2ccc(-c3cc4c(Cl)cccc4c(=O)[nH]3)cn2)CC1 [IQ-007]
< 20 nM | Cc1cccc2c(=O)[nH]c(-c3ccc(N4CCC(N(C)C)C4)nc3)cc12 (stereo not shown) [IQ-008]
< 500 nM | CC(C)(C)OC(=O)N1CCN(c2ccc(-c3cc4c(Cl)cccc4c(=O)[nH]3)cc2)CC1 [IQ-010]
< 20 nM | Cc1cccc2c(=O)[nH]c(-c3ccc(N4CCN(CCO)CC4)nc3)cc12 [IQ-011, 3-{6-[4-(2-Hydroxy-ethyl)-piperazin-1-yl]-pyridin-3-yl}-5-methyl-2H-isoquinolin-1-one]
< 50 nM | O=c1[nH]c(-c2ccc(N3CCN(CCO)CC3)nc2)cc2c(Cl)cccc12 [IQ-012]
< 50 nM | Cc1cccc2c(=O)[nH]c(-c3ccc(N4CCN(C(=O)OC(C)(C)C)CC4)cc3)cc12 [IQ-013]
< 20 nM | O=c1[nH]c(-c2ccc(N3CCNCC3)cc2)cc2c(Cl)cccc12 [IQ-014]
< 50 nM | CC(=O)N1CCN(c2ccc(-c3cc4c(Cl)cccc4c(=O)[nH]3)cc2)CC1 [IQ-015]

IC50 | SMILES
< 500 nM and < 50 nM and < 20 nM and 12 nM | Cc1cccc2c(=O)[nH]c(-c3ccc(N4CCNCC4)cc3)cc12 [IQ-016]
< 20 nM | Cc1cccc2c(=O)[nH]c(-c3ccc(N4CCN(CCN(C)C)CC4)nc3)cc12 [IQ-018]
< 500 nM | Cc1cccc2c(=O)[nH]c(-c3cnc(N4CCN(C(=O)OC(C)(C)C)CC4)c(F)c3)cc12 [IQ-020]
< 50 nM | Cc1cccc2c(=O)[nH]c(-c3cnc(N4CCNCC4)nc3)cc12 [IQ-026]
< 20 nM | Cc1cccc2c(=O)[nH]c(-c3ccc(N4CCNCC4)nc3)cc12 [IQ-028-1]
< 20 nM | CNCc1ccc(-c2cc3c(C)cccc3c(=O)[nH]2)cc1 [IQ-029]
< 500 nM | Cc1cccc2c(=O)[nH]c(-c3ccc(CN4CCCC4)c(F)c3)cc12 [IQ-039]
< 500 nM | Cc1cccc2c(=O)[nH]c(-c3ccc(CN4CCN(C(=O)OC(C)(C)C)CC4)cc3)cc12 [IQ-040]
< 500 nM | Cc1cccc2c(=O)[nH]c(-c3ccc(CCN4CCCC4)cc3)cc12 [IQ-041]
< 50 nM | Cc1cccc2c(=O)[nH]c(-c3ccc(CCN4CCOCC4)cc3)cc12 [IQ-042]
< 500 nM | CC(C)(C)OC(=O)N1CCN(Cc2ccc(-c3cc4c(Cl)cccc4c(=O)[nH]3)cc2)CC1 [IQ-044]
< 50 nM | CC(=O)N1CCN(Cc2ccc(-c3cc4c(Cl)cccc4c(=O)[nH]3)cc2)CC1 [IQ-045]
< 500 nM | CC(C)(C)OC(=O)N1CCN(Cc2ccc(-c3cc4c(C5CC5)cccc4c(=O)[nH]3)cc2)CC1 [IQ-047]
< 500 nM | O=c1[nH]c(-c2ccc(CN3CCNCC3)cc2)cc2c(C3CC3)cccc12 [IQ-049]
< 50 nM | Cc1cccc2c(=O)[nH]c(-c3ccc(CN4CCN(C5CC5)CC4)cc3)cc12 [IQ-050]

— patent US9193689B2, “3-aryl-5-substituted-isoquinolin-1-one compounds and their therapeutic use” (INSTITUTE OF CANCER RESEARCH: ROYAL CANCER HOSPITAL (THE), priority 2012, dated 2015)
